# Measurements as given in PubChem BioAssay AID258 (DTP/NCI, 2004).
# Several values for one entry are separate records, joined by “and”; a condition that tells them apart may be missing. Equal values may be shown once. Toxic doses and inconclusive results are not listed.
# Test system: CD2F1 mice, L1210 leukemia sc, survival T/C
# Experiment: NCI In Vivo Anticancer Drug Screen. Data for tumor model L1210 Leukemia (subcutaneous) in CD2F1 (CDF1) mice
# Settings: endpoint: median survival time, higher = longer survival
# Procedure, shortened: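 Compound given to mice bearing transplantable tumor. Survival or tumor size then recorded. Result expressed relative to vehicle-dosed control group as T/C.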
compound,measurement,setting,value
O=C(Nc1ccc(C2=NCCN2)cc1)c1cccc(C(=O)Nc2ccc(C3=NCCN3)cc2)c1,T/C,"dose: 2.0 mg/kg/injection, schedule: Q01DX Z (iv), vehicle: water",100 % of control
same,T/C,"dose: 3.0 mg/kg/injection, schedule: Q01DX Z (sc), vehicle: methylcellulose (MC)",100 % of control
same,T/C,"dose: 4.0 mg/kg/injection, schedule: Q01DX Z (iv), vehicle: water",111 % of control
same,T/C,"dose: 5.0 mg/kg/injection, schedule: Q01DX Z (sc), vehicle: methylcellulose (MC)",100 % of control
same,T/C,"dose: 5.0 mg/kg/injection, schedule: Q01DX Z (sc), vehicle: water",111 % of control
same,T/C,"dose: 8.0 mg/kg/injection, schedule: Q01DX Z (iv), vehicle: water",161 % of control
same,T/C,"dose: 8.0 mg/kg/injection, schedule: Q01DX Z (sc), vehicle: water",183 % of control
same,T/C,"dose: 8.4 mg/kg/injection, schedule: Q01DX Z (sc), vehicle: methylcellulose (MC)",111 % of control
same,T/C,"dose: 8.4 mg/kg/injection, schedule: Q01DX Z (sc), vehicle: water",200 % of control
same,T/C,"dose: 14.0 mg/kg/injection, schedule: Q01DX Z (sc), vehicle: water",250 % of control
same,T/C,"dose: 16.0 mg/kg/injection, schedule: Q01DX Z (sc), vehicle: water",277 % of control
same,T/C,"dose: 23.0 mg/kg/injection, schedule: Q01DX Z (sc), vehicle: methylcellulose (MC)",222 % of control
same,T/C,"dose: 23.0 mg/kg/injection, schedule: Q01DX Z (sc), vehicle: water",283 % of control
same,T/C,"dose: 32.0 mg/kg/injection, schedule: Q01DX Z (sc), vehicle: water",305 % of control
same,T/C,"dose: 39.0 mg/kg/injection, schedule: Q01DX Z (sc), vehicle: methylcellulose (MC)",161 % of control
same,T/C,"dose: 39.0 mg/kg/injection, schedule: Q01DX Z (sc), vehicle: water",266 % of control
same,T/C,"dose: 64.0 mg/kg/injection, schedule: Q01DX Z (sc), vehicle: water",283 % of control
same,T/C,"dose: 65.0 mg/kg/injection, schedule: Q01DX Z (sc), vehicle: methylcellulose (MC)",177 % of control
same,T/C,"dose: 65.0 mg/kg/injection, schedule: Q01DX Z (sc), vehicle: water",266 % of control
same,T/C,"dose: 128.0 mg/kg/injection, schedule: Q01DX Z (sc), vehicle: water",283 % of control
O=P1(NCCCl)OCCCN1CCCl (configuration not stated),T/C,"dose: 6.25 mg/kg/injection, schedule: Q01DX009 (ip), vehicle: saline",122 % of control
same,T/C,"dose: 6.25 mg/kg/injection, schedule: Q01DX009 (sc), vehicle: saline",116 % of control
same,T/C,"dose: 12.5 mg/kg/injection, schedule: Q01DX009 (ip), vehicle: saline",151 % of control
same,T/C,"dose: 25.0 mg/kg/injection, schedule: Q01DX009 (ip), vehicle: saline",161 % of control
same,T/C,"dose: 50.0 mg/kg/injection, schedule: Q01DX009 (ip), vehicle: saline",169 % of control and 188 % of control
same,T/C,"dose: 66.7 mg/kg/injection, schedule: Q01DX009 (ip), vehicle: saline",179 % of control
same,T/C,"dose: 66.7 mg/kg/injection, schedule: Q01DX009 (sc), vehicle: saline",197 % of control
same,T/C,"dose: 100.0 mg/kg/injection, schedule: Q01DX009 (ip), vehicle: saline",188 % of control and 235 % of control
same,T/C,"dose: 100.0 mg/kg/injection, schedule: Q01DX009 (sc), vehicle: saline",155 % of control and 182 % of control and 232 % of control
same,T/C,"dose: 133.4 mg/kg/injection, schedule: Q01DX009 (sc), vehicle: saline",265 % of control
same,T/C,"dose: 150.0 mg/kg/injection, schedule: Q01DX009 (ip), vehicle: saline",247 % of control
same,T/C,"dose: 150.0 mg/kg/injection, schedule: Q01DX009 (sc), vehicle: saline",258 % of control
same,T/C,"dose: 200.0 mg/kg/injection, schedule: Q01DX001 (sc), vehicle: water",187 % of control and 188 % of control
same,T/C,"dose: 300.0 mg/kg/injection, schedule: Q01DX001 (sc), vehicle: water",211 % of control and 217 % of control
same,T/C,"dose: 300.0 mg/kg/injection, schedule: Q01DX009 (sc), vehicle: saline",176 % of control
same,T/C,"dose: 400.0 mg/kg/injection, schedule: Q01DX001 (sc), vehicle: water",241 % of control
same,T/C,"dose: 400.0 mg/kg/injection, schedule: Q01DX009 (ip), vehicle: saline",98 % of control
same,T/C,"dose: 400.0 mg/kg/injection, schedule: Q01DX009 (sc), vehicle: saline",108 % of control
same,T/C,"dose: 500.0 mg/kg/injection, schedule: Q01DX001 (sc), vehicle: water",241 % of control and 244 % of control
same,T/C,"dose: 600.0 mg/kg/injection, schedule: Q01DX001 (sc), vehicle: water",300 % of control and 302 % of control
same,T/C,"dose: 700.0 mg/kg/injection, schedule: Q01DX001 (sc), vehicle: water",264 % of control and 290 % of control
CC[C@@]1(O)C(=O)OCc2c1cc1n(c2=O)Cc2cc3ccccc3nc2-1,T/C,"dose: 0.13 mg/kg/injection, schedule: Q01DX Z (sc), vehicle: carboxymethylcellulose (CMC)",111 % of control
same,T/C,"dose: 0.22 mg/kg/injection, schedule: Q01DX Z (sc), vehicle: carboxymethylcellulose (CMC)",111 % of control
same,T/C,"dose: 0.6 mg/kg/injection, schedule: Q01DX Z (sc), vehicle: carboxymethylcellulose (CMC)",111 % of control
same,T/C,"dose: 1.0 mg/kg/injection, schedule: Q01DX Z (sc), vehicle: carboxymethylcellulose (CMC)",122 % of control
CC[C@H](c1ccc(O)cc1)[C@@H](CC)c1ccc(O)cc1,T/C,"dose: 130.0 mg/kg/injection, schedule: Q01DX Z (sc), vehicle: methylcellulose (MC)",111 % of control
CCN=c1cc2oc3cc(NCC)c(C)cc3c(-c3ccccc3C(=O)OCC)c-2cc1C,T/C,"dose: 0.63 mg/kg/injection, schedule: Q01DX009 (ip), vehicle: water",102 % of control
same,T/C,"dose: 0.63 mg/kg/injection, schedule: Q01DX009 (sc), vehicle: water",100 % of control
same,T/C,"dose: 1.25 mg/kg/injection, schedule: Q01DX009 (ip), vehicle: water",96 % of control
same,T/C,"dose: 1.25 mg/kg/injection, schedule: Q01DX009 (sc), vehicle: water",104 % of control and 97 % of control
same,T/C,"dose: 2.5 mg/kg/injection, schedule: Q01DX009 (sc), vehicle: water",105 % of control
same,T/C,"dose: 5.0 mg/kg/injection, schedule: Q01DX009 (sc), vehicle: water",104 % of control
